Reference: EPA's ToxValDB 9.5
In brackets after ≈: the same amount, converted by molar mass. Several values for one entry are separate records, joined by “and”; a condition that tells them apart may be missing. Equal values may be shown once. One block for each compound: values may come before it.

How the values were obtained:
Canidae = conditions: Dog Other
Pontoscolex corethrurus = conditions: acute; mortality
Colinus virginianus = conditions: acute; oral; mortality
Apis mellifera = conditions: acute; dermal; mortality
Homo sapiens = conditions: clinical
Meleagris sp. = conditions: not reported
[1] = subchronic; duration: 90 days
Daphnia magna = conditions: acute
Sus scrofa = conditions: for LEL: subchronic, oral, diet
[2] = subchronic, duration: 90 days, oral

SMILES: OC[C@H]1O[C@@H]2O[C@H]3[C@H](O)[C@@H](O)[C@@H](O[C@H]4[C@H](O)[C@@H](O)[C@@H](O[C@H]5[C@H](O)[C@@H](O)[C@@H](O[C@H]6[C@H](O)[C@@H](O)[C@@H](O[C@H]7[C@H](O)[C@@H](O)[C@@H](O[C@H]8[C@H](O)[C@@H](O)[C@@H](O[C@H]1[C@H](O)[C@H]2O)O[C@@H]8CO)O[C@@H]7CO)O[C@@H]6CO)O[C@@H]5CO)O[C@@H]4CO)O[C@@H]3CO [beta-Cyclodextrin]
- NOAEL (Rattus norvegicus; chronic, duration: 6 months, oral, gavage, Long-Evans, body weight): 600 mg/kg-day
- NOAEL (Rattus norvegicus; chronic, duration: 52 weeks, M/F, Sprague-Dawley, clinical chemistry): 654 mg/kg-day
- NOAEL (Canidae; chronic, duration: 1 years, clinical chemistry): 466 mg/kg-day

SMILES: O=C1CCSC1 [3(2H)-Thiophenone, dihydro-]
- LC50 (Pontoscolex corethrurus): 305 mg/kg

SMILES: COc1nc(NC(=O)NS(=O)(=O)c2ccccc2C(F)(F)F)nc(C(F)(F)F)n1 [Tritosulfuron]
- NOAEL (Canidae; chronic, duration: 12 months, oral, organ weight): 6 mg/kg-day
- NOAEL (Canidae; [2]): 15 mg/kg-day

SMILES: CSSC [Methyl disulfide]
- LD50 (Rattus norvegicus; acute, oral, mortality): > 125 mg/kg
- NOAEC (Rattus norvegicus; reproduction developmental, body weight): 5 ppm
- NOAEC (Rattus norvegicus; reproduction developmental, inhalation, no effects): 308 mg/m3
- NOAEC (Rattus norvegicus; subchronic, duration: 90 days, inhalation, body weight): 77 mg/m3
- LD50 (Colinus virginianus): 342 mg/kg
- LD50 (Apis mellifera): > 100 µg/piece

- LEL (Homo sapiens; duration: 5 years, no effects): ≤ 15 mg/day
SMILES: CC1=C(/C=C/C(C)=C/C=C/C(C)=C/C=C/C=C(C)/C=C/C=C(C)/C=C/C2=C(C)CCCC2(C)C)C(C)(C)CCC1 [beta-Carotene]

SMILES: CC(=O)OC(C)c1ccccc1 (racemic) [(+/-)-alpha-Methylbenzyl acetate]
- LC50 (Pontoscolex corethrurus): 1480 mg/kg

SMILES: CN1CCCC1=O [N-Methyl-2-pyrrolidone]
- NOAEL (Mus musculus; chronic, M/F, B6C3F1, organ weight): 90 mg/kg-day

SMILES: CC(C)[C@H]1OC(=O)[C@H](Cc2ccccc2)N(C)C(=O)[C@@H](C(C)C)OC(=O)[C@H](Cc2ccccc2)N(C)C(=O)[C@@H](C(C)C)OC(=O)[C@H](Cc2ccccc2)N(C)C1=O [Beauvericin]
- NOAEL (Gallus gallus; repeat dose other): 1.22 mg/kg-day and 0.536 mg/kg-day
- NOAEL (Meleagris sp.): 136 µg/kg-day

SMILES: [Cu+2].[O-2] [Cupric oxide]
- NOAEL (Homo sapiens; duration: 12 weeks, oral, M, clinical chemistry): 10 mg/day

SMILES: [Fe+2] [Fe +2 ion]
- NOAEL (Rattus norvegicus; developmental, development): 380 mg/kg-day
- NOAEL (Mus musculus; developmental, development): 380 mg/kg-day

SMILES: O=S(=O)([O-])c1ccc(N=Nc2cc(S(=O)(=O)[O-])c3ccccc3c2O)c2ccccc12.[Na+].[Na+] [Azorubine]
- NOAEL (Rattus norvegicus; chronic, M/F, body weight): 400 mg/kg-day
- NOAEL (Mus musculus; chronic, hematological): 375 mg/kg-day

SMILES: Cc1oc2ccccc2c1C [Benzofuran, 2,3-dimethyl-]
- NOAEL [1]: 0.6 mg/kg-day
- NOAEL (Rattus norvegicus; [2]): 0.6 mg/kg-day

SMILES: NC1=N[C@H](O)[C@H]2[C@H]3O[C@]4(O)O[C@@H]([C@@H](O)[C@@]2(N1)[C@@H]4O)[C@]3(O)CO [Tetrodotoxin]
- LEL (Mus musculus; acute, injection, intraperitoneal, no effects): 0.025 mg/kg-day
- NOAEL (Mus musculus; acute, oral, other): 0.075 mg/kg-day

SMILES: C/C=C/c1ccc(O)c(OC)c1 [Isoeugenol]
- NOEC (Daphnia magna): 0.4 mg/L
- LOAEL (Mus musculus; chronic, duration: 2 years, M, histopathology: neoplastic): 75 mg/kg-day

- LEL (Sus scrofa; duration: 42 days, Not specified, no effects): 0.5 mg/kg-day
- LEL (Gallus gallus; subchronic, duration: 35 days, oral, diet, M/F, no effects): 0.07 mg/kg-day
SMILES: C=C1CC[C@H](O)C/C1=C/C=C1\CCC[C@]2(C)[C@@H]([C@H](C)CCCC(C)(C)O)CC[C@@H]12 [Calcifediol]

SMILES: C[N+](C)(C)CC(=O)O.[Cl-] [Betaine hydrochloride]
- LEL (Sus scrofa; duration: 6 weeks, M/F, Large White x Landrace, clinical chemistry): 10000 mg/kg-day

SMILES: CCCCCCCC/C=C\CCCCCCCCCCCC(=O)O [Erucic acid]
- NOAEL (Sus scrofa; short-term, duration: 14 days, M/F, Not specified, histopathology: nonneoplastic): 700 mg/kg-day
- LOAEL (Gallus gallus; chronic, histopathology: nonneoplastic): 20 mg/kg-day
- NOAEL (Rattus norvegicus; short-term, duration: 7 days, oral, diet, M, Sprague-Dawley, histopathology: nonneoplastic): 700 mg/kg-day

SMILES: CCC(C)c1nccnc1OC (stereo not drawn) [3-sec-Butyl-2-methoxypyrazine]
- LC50 (Pontoscolex corethrurus): 235 mg/kg
- LC50 (Daphnia magna; mortality): 14 mg/L (≈ 84.2 µM)

SMILES: Cc1cc(OC(C)C)ccc1C(=O)C(C)(C)NC(=O)c1sccc1C [Isofetamid]
- NOAEL (Canidae; chronic, duration: 1 years, body weight): 1.57 mg/kg-day
- NOAEL (Canidae; subchronic, duration: 90 days, oral, body weight): 5.34 mg/kg-day
